These results are taken from patent US9023998B2, “Near infrared fluorogen and fluorescent activating proteins for in vivo imaging and live-cell biosensing” (Carnegie Mellon University, priority 2013, dated 2015).

Assay [1] relates to mL9.5 (SEQ. ID. NO. 21). Briefly: Fluorogen activation by purified monomeric FAP mL9.5 (spectra). It counts as biochemical. Conditions: purified protein, about 300 nM fluorogen, PBS pH 7.4. The source says:
(§1) While the peptide linker that joins the VL units in dL9.2 (SEQ. ID. NO. 2) and dL9.5 (SEQ. ID. NO. 3) enhance fluorogen binding affinity and binding rate by reducing the entropic cost of assembly around the fluorogen, the linker is not strictly necessary for fluorogenic activation. […] In panels C and D, corresponding spectra from mL9.5:SKC602 (SEQ. ID. NO. 21:SKC602) and mL9.5:SKC728 (SEQ. ID. NO. 21:SKC728) fluoromodules are shown. Spectra were obtained using a Quantamaster™ fluorometer (PTI) equipped with dual monochromators on both excitation and emission light paths.
(§2) To facilitate ligase-dependent cloning methods, the above procedure was repeated for dL9.5 (SEQ. ID. NO. 6), using otherwise identical primers that appended BspEI (TCCGGA) (SEQ. ID. NO. 25) and BamHI (GGATCC) (SEQ. ID. NO. 26) sites directly at the 5′ and 3′ termini, respectively, of the dL9.5 gene (SEQ. ID. NO. 6). The resulting plasmid, designated pPNL9z-dL9.5, could be digested with BspEI (SEQ. ID. NO. 25) and BamHI (SEQ. ID. NO. 26) to produce a yeast expression vector backbone capable of receiving inserts with like-digested termini. […]

Assay [2] deals with mL9.3 (SEQ. ID. NO. 20). Briefly: Fluorogen activation by purified monomeric FAP mL9.3 (spectra). It counts as biochemical. Conditions: purified protein, about 300 nM fluorogen, PBS pH 7.4.
Source text: as §1, §2

`CN(C)c1ccc(C(/C=C/c2ccc(N(C)CCCCC(=O)NC(CCS(=O)(=O)O)C(=O)O)cc2)=C2C=CC(=[N+](C)C)C=C2)cc1` (stereo not shown) [SKC728]: in assay [1], the “Induction of NIR fluorescence by mL9.5” value was “induce NIR fluorescence”. Moreover, the “Induction of NIR fluorescence by mL9.3” value in assay [2] is listed as “induces fluorescence”.

In the case of `CN(C)c1ccc(/C=C/C(=C2C=CC(=[N+](C)C)C=C2)c2ccc(N(C)C)cc2)cc1` [SKC602, (E)-N-(4-(1,3-bis(4-(dimethylamino)phenyl)allylidene)cyclohexa-2,5-dien-1-ylidene)-N-methylmethanaminium], the “Induction of NIR fluorescence by mL9.5” value in assay [1] is “induce NIR fluorescence”. Further, the “Induction of NIR fluorescence by mL9.3” value in assay [2] is recorded as “induces fluorescence”.
